Assay results: patent publication US20180265867A1, “NUCLEIC ACID MOLECULES WITH ENHANCED ACTIVITY” (priority 2015, published 2018)
d = 2'-deoxy (DNA); r = 2'-OH (RNA)

System: CTNNB1 (β-catenin)
Test: CTNNB1 knockdown time course in MG63 cells by qRT-PCR
Assay type: cell-based, human
Details: MG63, 50 nM, 24, 48 and 72 h; β-catenin cpRNA without transfection reagent vs canonical siRNA with transfection reagent
Protocol: At 70% confluency, a day prior to transfection, the cells were seeded at a density of 35 000 cells in a 24-well cell culture plate to achieve 60-80% confluence at the day of transfection. Cell penetrating siRNAs (cpRNAs) of different lengths were transfected at 50 nM concentrations with Magnet Assisted Transfection (MATra-si) reagent for siRNAs (IBA GmbH, Göttingen, Germany) according to the manufacturers' protocols. Briefly, the siRNA was mixed with MATra-si reagent composed of supermagnetic ironoxide nanoparticles and incubated for 20 min. A complex was formed which was added to the cells to be transfected. A strong magnetic force was applied beneath the cells for 15 min. This forced the complex to be drawn into the cells by the magnetic field, and as a result the siRNA was delivered directly into the cytosol. […]
cDNA synthesis was performed in triplicate using total RNA reverse transcribed using High Capacity cDNA reverse transcription kit (Applied Biosystems, USA), with non-template control added to ensure a lack of signal in assay background. […] Data from samples with a Ct value equal to or below 35 were further analyzed. Samples were normalized relative to endogenous control and differences in cycle number thresholds were calculated using comparative quantitation 2^−ΔΔcT method (also called the ΔΔCT method), commonly used for analyzing siRNA induced gene knockdown efficiency. […]

dT5: GAPDH siRNA, sense SEQ ID NO: 3 with dT5 3′-overhang, antisense SEQ ID NO: 2 with dT2 (sense CCGAGCCACAUCGCUCAGATTTTT; antisense UCUGAGCGAUGUGGCUCGGTT; sense: sugars from the 5' end r19 d5, backbone not given here; antisense: sugars from the 5' end r19 d2, backbone not given here)
CTNNB1 mRNA knockdown efficiency over time: higher gene knockdown efficiency for over 72 hrs
